In patent publication US11661403B2, “Oxadiazole compounds” (Vivace Therapeutics, Inc., priority 2018, dated 2023):
pIC50: −log10 of the molar value.

Tested on: 8XTBD luciferase reporter (YAP) in HEK293T cells
Assay: YAP Reporter Assay
Assay type: cell-based
Conditions: Homo sapiens, HEK-293T, 24 h, read-out: Firefly Luciferase IC50 (μM)

SMILES | IC50 [µM]
CN(C)C(=O)c1nnc(-c2ccccc2Nc2ccc(C(F)(F)F)cc2)o1 [Compound 194, N,N-dimethyl-5-(2-((4-(trifluoromethyl)phenyl)amino)phenyl)-1,3,4-oxadiazole-2-carboxamide] | 1 to 5
CCOC(=O)C(O)(C(=O)OCC)c1nnc(-c2ccccc2Nc2ccc(C(F)(F)F)cc2)o1 [Compound 200, diethyl 2-hydroxy-2-(5-(2-((4-(trifluoromethyl)phenyl)amino)phenyl)-1,3,4-oxadiazol-2-yl)malonate] | 0.1 to 1

Same assay, conditions: Homo sapiens, HEK-293T; HEK293T cells stably transfected with 8XTBD luciferase reporter and pRLTK; 24-hr incubation; top concentration 3 μM; read-out: Firefly Luciferase IC50

SMILES | pIC50
FC(F)(F)c1ccc(Nc2ccccc2-c2nnc(C3CCNC3)o2)cc1 (stereo not shown) [Compound 175, 2-(5-(pyrrolidin-3-yl)-1,3,4-oxadiazol-2-yl)-N-(4-(trifluoromethyl)phenyl)aniline] | 6.00 to 7.00
N#CN1CCC(c2nnc(-c3ccccc3Nc3ccc(C(F)(F)F)cc3)o2)C1 (stereo not shown) [Compound 177, 3-(5-(2-((4-(trifluoromethyl)phenyl)amino)phenyl)-1,3,4-oxadiazol-2-yl)pyrrolidine-1-carbonitrile] | 6.00 to 7.00
CC1(c2nnc(-c3ccccc3Nc3ccc(C(F)(F)F)cc3)o2)CCCO1 (stereo not shown) [Compound 178, 2-(5-(2-methyltetrahydrofuran-2-yl)-1,3,4-oxadiazol-2-yl)-N-(4-(trifluoromethyl)phenyl)aniline] | > 7.00
CC(O)(CCO)c1nnc(-c2ccccc2Nc2ccc(C(F)(F)F)cc2)o1 (stereo not shown) [Compound 179, 3-(5-(2-((4-(trifluoromethyl)phenyl)amino)phenyl)-1,3,4-oxadiazol-2-yl)butane-1,3-diol] | > 7.00
CC1(c2nnc(-c3ccccc3Nc3ccc(C(F)(F)F)cc3)o2)CCO1 (stereo not shown) [Compound 180, 2-(5-(2-methyloxetan-2-yl)-1,3,4-oxadiazol-2-yl)-N-(4-(trifluoromethyl)phenyl)aniline] | > 7.00
FC(F)(F)c1ccc(Nc2ccccc2-c2nnc(C3CCCO3)o2)cc1 (stereo not shown) [Compound 181, 2-(5-(tetrahydrofuran-2-yl)-1,3,4-oxadiazol-2-yl)-N-(4-(trifluoromethyl)phenyl)aniline] | 6.00 to 7.00
FC(F)(F)c1ccc(Nc2ccccc2-c2nnc(C3CCO3)o2)cc1 (stereo not shown) [Compound 182, 2-(5-(oxetan-2-yl)-1,3,4-oxadiazol-2-yl)-N-(4-(trifluoromethyl)phenyl)aniline] | > 7.00
CC1(c2nnc(-c3ccccc3Nc3ccc(C(F)(F)F)cc3)o2)COC1 [Compound 183, 2-(5-(3-methyloxetan-3-yl)-1,3,4-oxadiazol-2-yl)-N-(4-(trifluoromethyl)phenyl)aniline] | 6.00 to 7.00
N#CC1(c2nnc(-c3ccccc3Nc3ccc(C(F)(F)F)cc3)o2)CC1 [Compound 184, 1-(5-(2-((4-(trifluoromethyl)phenyl)amino)phenyl)-1,3,4-oxadiazol-2-yl)cyclopropane-1-carbonitrile] | > 7.00
CN(C)C(=O)C1(c2nnc(-c3ccccc3Nc3ccc(C(F)(F)F)cc3)o2)CC1 [Compound 185, N,N-dimethyl-1-(5-(2-((4-(trifluoromethyl)phenyl)amino)phenyl)-1,3,4-oxadiazol-2-yl)cyclopropane-1-carboxamide] | 6.00 to 7.00
CNC(=O)C1(c2nnc(-c3ccccc3Nc3ccc(C(F)(F)F)cc3)o2)CC1 [Compound 186, N-methyl-1-(5-(2-((4-(trifluoromethyl)phenyl)amino)phenyl)-1,3,4-oxadiazol-2-yl)cyclopropane-1-carboxamide] | 6.00 to 7.00
NC(=O)C1(c2nnc(-c3ccccc3Nc3ccc(C(F)(F)F)cc3)o2)CC1 [Compound 187, 1-(5-(2-((4-(trifluoromethyl)phenyl)amino)phenyl)-1,3,4-oxadiazol-2-yl)cyclopropane-1-carboxamide] | > 7.00
COCC(C)NC(=O)c1nnc(-c2ccccc2Nc2ccc(C(F)(F)F)cc2)o1 (stereo not shown) [Compound 188, N-(1-methoxypropan-2-yl)-5-(2-((4-(trifluoromethyl)phenyl)amino)phenyl)-1,3,4-oxadiazole-2-carboxamide] | 6.00 to 7.00
CC(CO)NC(=O)c1nnc(-c2ccccc2Nc2ccc(C(F)(F)F)cc2)o1 (stereo not shown) [Compound 189, N-(1-hydroxypropan-2-yl)-5-(2-((4-(trifluoromethyl)phenyl)amino)phenyl)-1,3,4-oxadiazole-2-carboxamide] | 6.00 to 7.00
COCCNC(=O)c1nnc(-c2ccccc2Nc2ccc(C(F)(F)F)cc2)o1 [Compound 190, N-(2-methoxyethyl)-5-(2-((4-(trifluoromethyl)phenyl)amino)phenyl)-1,3,4-oxadiazole-2-carboxamide] | > 7.00
O=C(NCCO)c1nnc(-c2ccccc2Nc2ccc(C(F)(F)F)cc2)o1 [Compound 191, N-(2-hydroxyethyl)-5-(2-((4-(trifluoromethyl)phenyl)amino)phenyl)-1,3,4-oxadiazole-2-carboxamide] | > 7.00
CON(C)C(=O)c1nnc(-c2ccccc2Nc2ccc(C(F)(F)F)cc2)o1 [Compound 192, N-methoxy-N-methyl-5-(2-((4-(trifluoromethyl)phenyl)amino)phenyl)-1,3,4-oxadiazole-2-carboxamide] | 6.00 to 7.00
O=C(NC1CC1)c1nnc(-c2ccccc2Nc2ccc(C(F)(F)F)cc2)o1 [Compound 195, N-cyclopropyl-5-(2-((4-(trifluoromethyl)phenyl)amino)phenyl)-1,3,4-oxadiazole-2-carboxamide] | 6.00 to 7.00
CNC(=O)c1nnc(-c2ccccc2Nc2ccc(C(F)(F)F)cc2)o1 [Compound 198, N-methyl-5-(2-((4-(trifluoromethyl)phenyl)amino)phenyl)-1,3,4-oxadiazole-2-carboxamide] | > 7.00
CC1(C)OCC(O)(c2nnc(-c3ccccc3Nc3ccc(C(F)(F)F)cc3)o2)CO1 [Compound 199, 2,2-dimethyl-5-(5-(2-((4-(trifluoromethyl)phenyl)amino)phenyl)-1,3,4-oxadiazol-2-yl)-1,3-dioxan-5-ol] | 5.30 to 6.00
OCC(O)(CO)c1nnc(-c2ccccc2Nc2ccc(C(F)(F)F)cc2)o1 [Compound 201, 2-(5-(2-((4-(trifluoromethyl)phenyl)amino)phenyl)-1,3,4-oxadiazol-2-yl)propane-1,2,3-triol] | > 7.00
CC(=O)OC(CO)c1nnc(-c2ccccc2Nc2ccc(C(F)(F)F)cc2)o1 (stereo not shown) [Compound 202, 2-hydroxy-1-(5-(2-((4-(trifluoromethyl)phenyl)amino)phenyl)-1,3,4-oxadiazol-2-yl)ethyl acetate] | > 7.00
OC(CF)c1nnc(-c2ccccc2Nc2ccc(C(F)(F)F)cc2)o1 (stereo not shown) [Compound 203, 2-fluoro-1-(5-(2-((4-(trifluoromethyl)phenyl)amino)phenyl)-1,3,4-oxadiazol-2-yl)ethan-1-ol] | > 7.00
FC(F)(F)c1ccc(Nc2ccc(Br)cc2-c2nnc(C3CC3)o2)cc1 [Compound 204, 4-bromo-2-(5-cyclopropyl-1,3,4-oxadiazol-2-yl)-N-(4-(trifluoromethyl)phenyl)aniline] | 6.00 to 7.00

Same assay, conditions: Homo sapiens, HEK-293T; […]; 24-hr incubation; top concentration 3 μM; read-out: Firefly Luciferase IC50

SMILES | pIC50
CC(C)NC(=O)c1nnc(-c2ccccc2Nc2ccc(C(F)(F)F)cc2)o1 [Compound 196, N-isopropyl-5-(2-((4-(trifluoromethyl)phenyl)amino)phenyl)-1,3,4-oxadiazole-2-carboxamide] | 6.00 to 7.00
CCNC(=O)c1nnc(-c2ccccc2Nc2ccc(C(F)(F)F)cc2)o1 [Compound 197, N-ethyl-5-(2-((4-(trifluoromethyl)phenyl)amino)phenyl)-1,3,4-oxadiazole-2-carboxamide] | > 7.00
